Measured values taken from paper PMC3409241, “Probing Cocaine-Antibody Interactions in Buffer and Human Serum” (PLoS ONE, 2012).
Entries after “also recorded” stand apart in the source; their conditions may differ. Structures can show the parent of a compound that is named as a salt. Where two headings read alike, the source gives them in different places.

Tests used:
mAb08 [1] = experiment: SPR competitive inhibition of mAb08 binding to immobilized BSA-SNC; design: species or system mouse; details: 50 nM mAb08 mixed with increasing drug concentrations
[2] = test system: RR6 enriched polyclonal antibodies; experiment: SPR competitive inhibition of RR6 enriched polyclonal antibody binding to immobilized BSA-SNC; design: species or system mouse
Experimental: (§1) Data was collected using a medium collection rate at 25°C. The instrument was primed a few times using the running buffer before injecting the concentration series. For every binding cycle, the antibody samples were injected for 1.5 minutes at 50 µl/min flow rate and dissociation was monitored for 5 minutes. The bound antibody was releasedwith two 15 µl injections of pH 1.5 glycine buffer. The kinetic constants of binding were obtained using a 1∶1 Langmuir binding model. The raw data sets were analyzed using BIAevaluation (version 3.2) provided by BIAcore Inc. (Uppsala, Sweden). After the subtraction of background responses from the control flow cells, the association and dissociation phases were globally fitted for all the sensorgrams simultaneously, omitting any noisy data at the beginning and end of the analyte injection.

f-mAb08 = experiment: MST of fluorescently labeled f-mAb08 binding to drugs; design: species or system mouse; details: 25°C
Experimental: The fluorescent labeling was performed with a reactive RED dye (NT-647) following the manufacturer’s protocol (Nanotemper, Germany). […] Free dye was removed by purification on a Sephadex G-25 column provided with the kit. MST assays were carried out as described in Jerabek-Willesmsen et al.. Serial dilutions of unlabeled drug or antibody samples were mixed with 20 nM of NT-647-labeled proteins in PBS buffer (25 mM phosphate pH 7.4, 150 mM NaCl, 0.05% Tween-20) and incubated for 20 minutes. About 10 µl of sample was loaded into standard monolith NT capillaries provided by the manufacturer and assays were performed in a Nanotemper Monolith NT.015T. The Red fluorescence was exited using a light-emitting diode, and its emission was recorded at a focused location of capillary. Using another infrared laser diode a microscopic temperature gradient was created at the same location and the fluorescence depletion was measured. By plotting the concentrations of unlabeled binding partner with the changes in fluorescent thermophoresis signal, K D values were determined using the Nanotemper analysis software. The overlay diagram was made by normalizing the data to fraction bound.

mAb08 [3] = experiment: ITC titration of drug into mAb08; type: binding, mouse; details: 25°C
Experimental: (§2) ITC experiments were performed using an ITC-200 micro calorimeter from MicroCal (Northampton, MA, USA). Samples were dialyzed against PBS buffer and degassed prior to loading into the ITC cell. The drug samples were prepared in the same buffer to avoid buffer mismatch. Titrations were performed at 25°C by injecting consecutive aliquots (2 µl) of 45 µM drug into the ITC cell (volume of 200 µl) containing 3 µM antibody at 500 rpm stirring rate. Intervals between injections were set to be 150 sec in order to allow the heat from each injection to return to the baseline. Heats of dilution control experiments were performed by titrating ligand into buffer. The heats associated with the control titration were subtraced from the raw binding data prior to fitting. The data were fitted assuming that the antibody binding sites are identical using a single set binding model included in the Origin 7.0 software provided by the manufacturer. ITC directly measures the change in heat associated with two components going from the free to the bound state. Thus the observed molar change in enthalpy (ΔHobs) can be determined.
The binding isotherms, which is the incremental heat release as a function of complex formation is shown in the lower panel of Fig. 3. The solid line corresponds to the fit to a binding model to yield the equilibrium binding constant, K D, and the binding parameters, n and ΔH obs. The results of data analysis are shown in Table 1 along with the derived parameters, ΔGcal and ΔScal.
(§3) The thermodynamic parameters associated with the binding of cocaine to human serum and human serum albumin were investigated using ITC. We titrated 45 µM of cocaine to 20% of control human serum (no anti-cocaine antibodies) dialyzed against PBS (Figure 4A).

[4] = cited from earlier work
human serum albumin = human serum albumin (Homo sapiens, UniProt P02768); experiment: ITC titration of cocaine into human serum albumin; type: binding; details: 5 µM HSA against 45 µM cocaine in PBS
Experimental: as §2, §3

Clone 402 = experiment: ITC titration of cocaine into Clone 402 antibody; type: binding
Experimental: as §2

[5] = target: enriched polyclonal antibodies purified from mouse or patient serum; experiment: SPR competitive inhibition of enriched polyclonal antibody binding to immobilized BSA-SNC
Experimental: as §1

nonspecific human IgG = experiment: ITC of cocaine in presence of nonspecific human IgG; type: binding; details: 7 µM non-specific human IgG with mAb08
Experimental: as §2, §3

20% human serum = experiment: ITC titration of cocaine into 20% control human serum; type: binding
Experimental: as §2, §3

cAMP kinase = test system: cAMP kinase; design: method as in PMID 20981028; details: in presence of 30% human serum; cited from earlier work
[6] = 20 nM f-mAb08, 20% control human serum, read-out: K D ^2 (nM) (Serum%)
[7] = 20 nM f-mAb08, PBS (phosphate buffer), read-out: K D ^1 (nM) Enriched IgG

Chain of human serum albumin (P02768 25-609): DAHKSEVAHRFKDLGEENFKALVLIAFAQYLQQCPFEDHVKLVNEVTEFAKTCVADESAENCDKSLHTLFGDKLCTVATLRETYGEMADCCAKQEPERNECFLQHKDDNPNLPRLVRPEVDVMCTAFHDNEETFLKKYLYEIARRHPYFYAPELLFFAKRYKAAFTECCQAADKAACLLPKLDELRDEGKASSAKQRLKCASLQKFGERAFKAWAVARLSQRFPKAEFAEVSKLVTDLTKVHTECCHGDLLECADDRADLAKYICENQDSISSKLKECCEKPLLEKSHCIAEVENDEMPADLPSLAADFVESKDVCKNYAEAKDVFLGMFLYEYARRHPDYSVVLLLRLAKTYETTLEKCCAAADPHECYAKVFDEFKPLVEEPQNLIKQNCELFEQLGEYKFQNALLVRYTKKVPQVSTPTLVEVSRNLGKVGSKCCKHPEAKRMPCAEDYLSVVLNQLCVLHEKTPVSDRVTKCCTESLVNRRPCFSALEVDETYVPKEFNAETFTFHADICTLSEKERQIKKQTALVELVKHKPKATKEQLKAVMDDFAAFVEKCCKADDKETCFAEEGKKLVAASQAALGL

CN1[C@H]2CC[C@@H]1[C@@H](C(=O)O)[C@@H](OC(=O)c1ccccc1)C2 [Benzoylecgonine]
IC50 (mAb08 [1]): 123 nM | IC50 (mAb08 [1]; listed as BE): ~123 nM | inhibition of RR6 enriched fraction binding to BSA-SNC [2]: did not show any significant inhibition | Kd (f-mAb08; [6]): 98 nM | Kd (f-mAb08; [7]): 23.7 nM | Kd (mAb08 [3]; PBS pH 7.4, sample mAb08): 18.6 ± 48.7 nM | ΔGcal (mAb08 [3]; PBS pH 7.4, sample mAb08): -10.5 kcal/mol | ΔHobs (mAb08 [3]; PBS pH 7.4, sample mAb08): -21.66 ± 0.61 kcal/mol | ΔScal (mAb08 [3]; PBS pH 7.4, sample mAb08): −37.3 cal.mol^−1K^−1 | elimination half-life [4]: 6 to 8 h

CCOC(=O)[C@@H]1C2CCC(C[C@@H]1OC(=O)c1ccccc1)N2C (stereo partly drawn) [Cocaethylene]
Kd (f-mAb08; [6]): 169 nM | Kd (f-mAb08; [7]): 47 nM | Kd (mAb08 [3]; PBS pH 7.4, sample mAb08): 34.4 nM | ΔGcal (mAb08 [3]; PBS pH 7.4, sample mAb08): -10.2 kcal/mol | ΔHobs (mAb08 [3]; PBS pH 7.4, sample mAb08): -21.16 ± 0.48 kcal/mol | ΔScal (mAb08 [3]; PBS pH 7.4, sample mAb08): −36.8 cal.mol^−1K^−1

COC(=O)[C@H]1[C@@H](OC(=O)c2ccccc2)C[C@@H]2CC[C@H]1N2C [Cocaine, Cocaine hydrochloride]
binding to human serum albumin (human serum albumin): very little interaction; also recorded: no detectable binding; also recorded: does not bind strongly | IC50 (mAb08 [1]): ~100 nM | IC50 (mAb08 [1]; listed as cocaine): ~104 nM | ΔGcal (Clone 402; ITC, 25°C, sample Clone 402): -6.8 kcal/mol | ΔHobs (Clone 402; ITC, 25°C, sample Clone 402): -26.4 ± 1.93 kcal/mol | ΔScal (Clone 402; ITC, 25°C, sample Clone 402): −65.6 cal.mol^−1K^−1 | Kd (Clone 402; ITC, 25°C, sample Clone 402, read-out: K D): 10000 nM | Kd (Clone 402; clone 402 (Arista Biologicals), read-out: affinity to cocaine): ~10000 nM | IC50 [5]: 100 to 500 nM | Kd (f-mAb08; [6]): 105 nM | Kd (f-mAb08; 20 nM f-mAb08, 50% control human serum, listed as cocaine, read-out: K D ^2 (nM) (Serum%)): ~100 nM | Kd (f-mAb08; 20 nM f-mAb08, 50% control human serum, read-out: K D ^2 (nM) (Serum%)): 128 nM | Kd (f-mAb08; [7]): 7.8 nM | binding to nonspecific human IgG (nonspecific human IgG): very little interaction; also recorded: absence of non-specific cocaine binding | Kd (20% human serum; 45 µM cocaine to 20% control human serum): ~2000 nM | Kd (20% human serum; 25°C, sample 20% Serum): 2000 nM | ΔGcal (20% human serum; 25°C, sample 20% Serum): -7.8 kcal/mol | ΔHobs (20% human serum; 25°C, sample 20% Serum): -21.82 ± 3.16 kcal/mol | ΔScal (20% human serum; 25°C, sample 20% Serum): −47.1 cal.mol^−1K^−1 | Kd (mAb08 [3]; PBS pH 7.4, sample mAb08): 2.5 ± 6.8 nM | ΔGcal (mAb08 [3]; PBS pH 7.4, sample mAb08): -11.7 kcal/mol | ΔHobs (mAb08 [3]; PBS pH 7.4, sample mAb08): -28.08 ± 0.37 kcal/mol | ΔScal (mAb08 [3]; PBS pH 7.4, sample mAb08): −54.8 cal.mol^−1K^−1 | Kd (mAb08 [3]; sample mAb08+7 µM hIgG): 4 ± 10.5 nM | ΔGcal (mAb08 [3]; sample mAb08+7 µM hIgG): -11.5 kcal/mol | ΔHobs (mAb08 [3]; sample mAb08+7 µM hIgG): -28.58 ± 0.35 kcal/mol | ΔScal (mAb08 [3]; sample mAb08+7 µM hIgG): −57.4 cal.mol^−1K^−1 | ΔHobs (mAb08 [3]; sample mAb08+7 µM hIgG, listed as cocaine): -28 kcal/mol | Kd (mAb08 [3]; sample mAb08+20% Serum): 113 nM | ΔGcal (mAb08 [3]; sample mAb08+20% Serum): -9.5 kcal/mol | ΔHobs (mAb08 [3]; sample mAb08+20% Serum): -33.19 ± 0.61 kcal/mol | ΔScal (mAb08 [3]; sample mAb08+20% Serum): −79.5 cal.mol^−1K^−1 | Kd (mAb08 [3]; sample mAb08+20% Serum, listed as cocaine): ~113 nM | elimination half-life ([4]; depends on route of administration): 1 to 1.5 h

O=c1c(O)c(-c2ccc(O)c(O)c2)oc2cc(O)cc(O)c12 [quercetin]
fold decrease in affinity (cAMP kinase): 400 fold
